ChEMBL document CHEMBL1147409, “3-(4-Aminobutyn-1-yl)pyridines: binding at alpha 4 beta 2 nicotinic cholinergic receptors” (Bioorg Med Chem Lett, 2004)

What follows are compounds tested against Neuronal acetylcholine receptor; alpha4/beta2 (Homo sapiens, UniProt P17787+P43681) (assay: Binding affinity towards nicotinic acetylcholine receptor alpha4-beta2).
Assay type: protein-complex assay

Neuronal acetylcholine receptor; alpha4/beta2, sequence (P17787 whole entry): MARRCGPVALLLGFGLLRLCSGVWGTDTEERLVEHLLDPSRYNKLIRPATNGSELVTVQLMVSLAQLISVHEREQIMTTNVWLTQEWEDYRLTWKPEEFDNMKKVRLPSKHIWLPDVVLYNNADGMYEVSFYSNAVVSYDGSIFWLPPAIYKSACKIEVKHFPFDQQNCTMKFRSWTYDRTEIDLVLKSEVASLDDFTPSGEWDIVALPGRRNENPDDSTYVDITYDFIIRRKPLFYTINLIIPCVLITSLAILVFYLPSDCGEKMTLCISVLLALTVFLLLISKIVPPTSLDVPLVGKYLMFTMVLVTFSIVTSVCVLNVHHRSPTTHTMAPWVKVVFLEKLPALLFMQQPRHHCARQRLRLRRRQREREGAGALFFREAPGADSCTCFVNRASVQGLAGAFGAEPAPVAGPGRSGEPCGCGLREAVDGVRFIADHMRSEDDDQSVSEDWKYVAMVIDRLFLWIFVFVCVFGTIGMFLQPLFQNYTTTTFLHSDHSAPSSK
Neuronal acetylcholine receptor; alpha4/beta2, sequence (P43681 whole entry): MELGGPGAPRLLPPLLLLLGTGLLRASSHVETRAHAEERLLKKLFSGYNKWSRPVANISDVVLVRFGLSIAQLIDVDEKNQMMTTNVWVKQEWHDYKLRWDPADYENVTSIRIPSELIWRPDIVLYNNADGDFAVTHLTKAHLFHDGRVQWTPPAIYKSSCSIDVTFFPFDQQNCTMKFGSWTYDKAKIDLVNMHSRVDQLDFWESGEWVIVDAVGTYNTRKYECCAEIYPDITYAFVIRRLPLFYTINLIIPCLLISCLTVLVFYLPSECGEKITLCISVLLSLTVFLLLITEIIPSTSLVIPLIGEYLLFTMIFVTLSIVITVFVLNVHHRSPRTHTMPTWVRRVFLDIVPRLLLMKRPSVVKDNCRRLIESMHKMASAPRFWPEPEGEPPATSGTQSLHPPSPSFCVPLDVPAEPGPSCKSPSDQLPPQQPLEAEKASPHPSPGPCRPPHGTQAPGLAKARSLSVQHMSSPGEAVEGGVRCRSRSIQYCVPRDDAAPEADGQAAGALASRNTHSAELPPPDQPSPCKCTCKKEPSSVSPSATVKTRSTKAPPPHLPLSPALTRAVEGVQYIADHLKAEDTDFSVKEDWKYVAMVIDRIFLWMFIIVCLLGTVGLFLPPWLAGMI

| SMILES | Ki [nM] |
| --- | --- |
| CNCC#Cc1cccnc1 | 2290 |
| CNCC/C=C/c1cccnc1 [RIVANICLINE] | 25 |
| CNC/C=C/c1cccnc1 | ~6000 |

These compounds were tested against Neuronal acetylcholine receptor alpha4/beta2 (Rattus norvegicus) (assay: Binding affinity towards nicotinic acetylcholine receptor alpha4-beta2 from rat brain homogenates).

| SMILES | Ki [nM] |
| --- | --- |
| c1cncc(CN2CCCC2)c1 | 30 |
| C[N+](C)(C)CCC#Cc1cccnc1 | 470 |
| CNCCC#Cc1ccc(Cl)nc1 | 154 |
| CNCCOc1cccnc1 | 35 |
| C[N+](C)(C)CCOc1cccnc1 | 0.5 |
| CNCCC#Cc1ccc(OC)nc1 | > 10000 |
| CN(C)CCC#Cc1cccnc1 | 510 |
| CN(C)Cc1cccnc1 | 540 |
| CN(C)CCOc1cccnc1 | 21 |
| CCN(C)Cc1cccnc1 | 28 |
| C(#Cc1cccnc1)CCN1CCCC1 | > 10000 |
| c1cncc(OCCN2CCCC2)c1 | 212 |
| C[N+](C)(C)Cc1cccnc1 | 110 |
| CNCc1cccnc1 | > 10000 |
